The text below walks through data of PubChem BioAssay AID2060497 (Molecular Pharmacology Branch, DTP, NCI, 2025).

Values joined by “and” are separate entries in the source; they are usually repeats but may differ in a detail not shown here. Equal values may be shown once.

The test system of this test is 317291-083-R-J1-PDC complex spheroids, viability. In words: Anticancer human tumor 317291-083-R-J1-PDC patient-derived soft tissue sarcoma cell line growth inhibition [GQUAD]. The note with it: for viability, T/C: stronger effect = lower value. From the text: DNA G-quadruplex Stabilizer Agents in Combinations in Complex Spheroids
A high-throughput screen of multi-cell type tumor spheroids was designed to identify active combinations of DNA G-quadruplex stabilizer agents and targeted small molecules. Complex spheroids include a stromal component modeled by human endothelial cells (HUVEC) and fibroblasts modeled by human mesenchymal stem cells (MSCs). The concentration ranges selected for each drug and investigational agent were based upon clinically achievable concentrations if the clinical Cmax of the agent was known.
Compounds. The drugs and investigational agents: pidnarulex (CX-5461; NSC782164), APTO-253 (NSC789042), BRACO-19 (NSC847499), peposertib (NSC802822), ceralasertib (NSC780249), elimusertib (NSC800525), camonsertib (NSC841442), AZD-1390 (NSC803789), olaparib (NSC753686), talazoparib (NSC767125), ART-558 (NSC835418), sotorasib (NSC818433), MRTX-1133 (NSC836407), SN-38 (NSC673596), topotecan (NSC609699), etoposide (NSC141540), doxorubicin (NSC123127), gemcitabine (NSC613327), 5-fluorouracil (NSC19893), paclitaxel (NSC125973), vemurafenib (NSC761431), panobinostat (NSC761190), R-306465 (JNJ-16241199; NSC773264), adavosertib (NSC754352), TP-3654 (NSC805149), carboplatin (NSC241240), KSQ-4279 (NSC840948), and staurosporine (NSC755774) were obtained from the National Cancer Institute (NCI) Developmental Therapeutics Program Chemical Repository (34). The FDA-approved anticancer drug set is available from the NCI Developmental Therapeutics Program. […] The stock solutions were prepared in dimethyl sulfoxide (DMSO, Sigma-Aldrich, St. Louis, MO, cat. D2650) at 800-fold the tested concentration and stored at -70 degrees C prior to their use. All drugs and investigational agents were tested over a range starting from a high concentration at or near the clinical Cmax and decreasing in half-log increments. If the clinical Cmax for an agent had not been determined, the highest concentration tested was 10 microM.
2.3 Cell Culture. All cells were maintained in an incubator at 37 degrees C and 5% CO2 with 95% humidity. The PDC lines were cultured according to standard operating procedures established by the NCI PDMR. All PDCs were thawed and cultured in Matrigel-coated flasks prepared with a working solution of 1X Ham's F-12 nutrient mix, without supplementation (Invitrogen, cat. 11765054), 100 U/mL penicillin-streptomycin (Invitrogen, cat. 15140122), and 2.5% Matrigel (Corning Inc., cat. 354248) for the first three passages. The 857933-349-R-J2-PDC line was cultured in 6C/Colon 1B media, which includes advanced DMEM/F-12 (Thermo Fisher Scientific, cat. 12634028), 10 mM HEPES (Thermo Fisher Scientific, cat. 15630080), 1X GlutaMAX supplement (Thermo Fisher Scientific, cat. 35050061), 0.1 mg/mL primocin (InvivoGen, cat. ant-pm-2), 10% defined fetal bovine serum, heat inactivated (HyClone Laboratories Inc., cat. SH30070.03HI), 50% L-WRN conditioned media (ATCC, cat. CRL-3276), 1.25 mM N-Acetyl-L-cysteine (Sigma-Aldrich, cat. A9165), 10 mM nicotinamide (Sigma-Aldrich, cat. N0636), 1X B-27 supplement (Thermo Fisher Scientific, cat. 17504044), 1X N-2 supplement (Thermo Fisher Scientific, cat. 17502048), 10 microM Y-27632 dihydrochloride (Tocris Bioscience, cat. 1254), and 50 ng/mL human EGF recombinant protein (Thermo Fisher Scientific, cat. PHG0311). The 485176-168-R4-J1-PDC line was cultured in Panc media, which includes all 6C/Colon 1B media components plus 100 ng/mL human FGF-10 (Thermo Fisher Scientific, cat. 100-26), 500 nM SB-431542 (Selleckchem, cat. S1067), and gastrin (Tocris, cat. 3006).
[…]

The mark [1] stands for this setting: curve of first compound, second compound 0.0316 µM.
Setting [2] is: curve of first compound, second compound 0.1 µM.
The mark [3] stands for this setting: curve of first compound, second compound 0.316 µM.
The mark [4] stands for this setting: curve of first compound, second compound 1 µM.
The mark [5] stands for this setting: curve of first compound, second compound 3.16 µM.
Setting [6] is: curve of first compound, second compound 10 µM.
[7] abbreviates: second compound 0.0316 µM, first compound 0.0316 µM.
The mark [8] stands for this setting: second compound 0.0316 µM, first compound 0.1 µM.
[9] abbreviates: second compound 0.0316 µM, first compound 0.316 µM.
Where [10] appears, read: second compound 0.0316 µM, first compound 1 µM.
The mark [11] stands for this setting: second compound 0.0316 µM, first compound 3.16 µM.
The mark [12] stands for this setting: second compound 0.0316 µM, first compound 10 µM.
Where [13] appears, read: second compound 0.1 µM, first compound 0.0316 µM.
[14] abbreviates: second compound 0.1 µM, first compound 0.1 µM.
Where [15] appears, read: second compound 0.1 µM, first compound 0.316 µM.
Where [16] appears, read: second compound 0.1 µM, first compound 1 µM.
The mark [17] stands for this setting: second compound 0.1 µM, first compound 3.16 µM.
The mark [18] stands for this setting: second compound 0.1 µM, first compound 10 µM.
Setting [19] is: second compound 0.316 µM, first compound 0.0316 µM.
Where [20] appears, read: second compound 0.316 µM, first compound 0.1 µM.
Where [21] appears, read: second compound 0.316 µM, first compound 0.316 µM.
The mark [22] stands for this setting: second compound 0.316 µM, first compound 1 µM.
Setting [23] is: second compound 0.316 µM, first compound 3.16 µM.
[24] abbreviates: second compound 0.316 µM, first compound 10 µM.
The mark [25] stands for this setting: second compound 1 µM, first compound 0.0316 µM.
[26] abbreviates: second compound 1 µM, first compound 0.1 µM.
The mark [27] stands for this setting: second compound 1 µM, first compound 0.316 µM.
The mark [28] stands for this setting: second compound 1 µM, first compound 1 µM.
Setting [29] is: second compound 1 µM, first compound 3.16 µM.
[30] abbreviates: second compound 1 µM, first compound 10 µM.
[31] abbreviates: second compound 3.16 µM, first compound 0.0316 µM.
Setting [32] is: second compound 3.16 µM, first compound 0.1 µM.
The mark [33] stands for this setting: second compound 3.16 µM, first compound 0.316 µM.
The mark [34] stands for this setting: second compound 3.16 µM, first compound 1 µM.
Setting [35] is: second compound 3.16 µM, first compound 3.16 µM.
The mark [36] stands for this setting: second compound 3.16 µM, first compound 10 µM.
The mark [37] stands for this setting: second compound 10 µM, first compound 0.0316 µM.
Setting [38] is: second compound 10 µM, first compound 0.1 µM.
Setting [39] is: second compound 10 µM, first compound 0.316 µM.
Where [40] appears, read: second compound 10 µM, first compound 1 µM.
[41] abbreviates: second compound 10 µM, first compound 3.16 µM.
Where [42] appears, read: second compound 10 µM, first compound 10 µM.
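Further: spheroids exposed to compounds for one week before readout.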
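Wherever viability, T/C is given: percent viability relative to DMSO vehicle wells taken as 100%.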

As for `CC(=O)O[C@H]1C(=O)[C@@]2(C)[C@H]([C@H](OC(=O)c3ccccc3)[C@]3(O)C[C@H](OC(=O)[C@H](O)[C@@H](NC(=O)c4ccccc4)c4ccccc4)C(C)=C1C3(C)C)[C@]1(OC(C)=O)CO[C@@H]1C[C@@H]2O`, the viability, T/C was 57.3% and 36.6% and 33.9% (compound 0.0316 µM); 20.6% and 16.7% and 10.5% (compound 0.1 µM); 13.1% and 15.6% and 6.57% (compound 0.316 µM); 12.8% and 15.3% and 9.02% (compound 1 µM); 12.2% and 9.53% and 10.6% (compound 3.16 µM); 12.3% and 12.5% and 12.1% (compound 10 µM). Also, the half-maximal inhibitory concentration (IC50) (curve of compound) is 39.7 nM and < 31.6 nM.
For `Cc1cnc(CNC(=O)c2c(=O)c3ccc(N4CCCN(C)CC4)nc3n3c2sc2ccccc23)cn1`, the viability, T/C is 93.8% [middle of 12 runs] (compound 0.0316 µM), 68.8% [middle of 12 runs] (compound 0.1 µM) and 31.6% [middle of 12 runs] (compound 1 µM).
Regarding `C#Cc1c(F)ccc2cc(O)cc(-c3ncc4c(N5CC6CCC(C5)N6)nc(OCC56CCCN5CC(F)C6)nc4c3F)c12` (stereo unspecified) + Cc1[nH]c2ccc(F)cc2c1-c1nc2c3cccnc3c3ncccc3c2[nH]1, the IC50 runs as follows: under setting [1], 6330 nM; under setting [2], 5600 nM; under setting [3], 4530 nM; under setting [4], 3280 nM; under setting [5], under 31.6 nM; under setting [6], 1360 nM. The viability, T/C was 109% under setting [7]; 92.8% under setting [8]; 97.8% under setting [9]; 99% under setting [10]; 82.2% under setting [11]; 28.6% under setting [12]. For the same compound, the viability, T/C under setting [13] was 90.9%; the viability, T/C under setting [14] was 106%; the viability, T/C under setting [15] is 94.9%; the viability, T/C under setting [16] was 108%; the viability, T/C under setting [17] was 75.6%; the viability, T/C under setting [18] was 23.9%. The viability, T/C under setting [19] was 80.3%; the viability, T/C under setting [20] was 58.9%; the viability, T/C under setting [21] was 79.3%; the viability, T/C under setting [22] is 59.2%; the viability, T/C under setting [23] was 72.5%; the viability, T/C under setting [24] was 6%. The viability, T/C under setting [25] was 66.5%; the viability, T/C under setting [26] is 52.8%; the viability, T/C under setting [27] was 64.2%; the viability, T/C under setting [28] was 54.2%; the viability, T/C under setting [29] was 52.5%; the viability, T/C under setting [30] is 3%. Moreover, the viability, T/C reads like this: under setting [31], 46.6%; under setting [32], 36.7%; under setting [33], 35.3%; under setting [34], 33.7%; under setting [35], 35.2%; under setting [36], 0.12%. Besides, the viability, T/C by setting is: under setting [37], 47.8%; under setting [38], 60.2%; under setting [39], 55.2%; under setting [40], 52.9%; under setting [41], 42%; under setting [42], 0.16%.
For `Nc1ccn(C2OC(CO)C(O)C2(F)F)c(=O)n1` (stereo unspecified) + CN(C)c1ccc(Nc2c3ccc(NC(=O)CCN4CCCC4)cc3nc3cc(NC(=O)CCN4CCCC4)ccc23)cc1, the concentration for half-maximal inhibition (IC50) by setting is: under setting [1], 44.5 nM; under setting [2], 37.7 nM; under setting [3], under 31.6 nM; under setting [4], under 31.6 nM; under setting [5], under 31.6 nM; under setting [6], under 31.6 nM. For the same compound, the viability, T/C is, setting by setting: under setting [7], 62.2%; under setting [8], 21.4%; under setting [9], 12.5%; under setting [10], 11.5%; under setting [11], 13.7%; under setting [12], 11.4%. The viability, T/C by setting is: under setting [13], 54.9%; under setting [14], 23.9%; under setting [15], 13.7%; under setting [16], 10.9%; under setting [17], 10.9%; under setting [18], 9.57%. In addition, the viability, T/C under setting [19] was 44.9%; the viability, T/C under setting [20] was 27.4%; the viability, T/C under setting [21] was 11.9%; the viability, T/C under setting [22] was 9.85%; the viability, T/C under setting [23] was 9.6%; the viability, T/C under setting [24] was 8.28%. Also, the viability, T/C under setting [25] is 26.9%; the viability, T/C under setting [26] is 27.8%; the viability, T/C under setting [27] is 10.5%; the viability, T/C under setting [28] is 7.35%; the viability, T/C under setting [29] is 7.21%; the viability, T/C under setting [30] is 7.95%. Also, the viability, T/C under setting [31] is 15.6%; the viability, T/C under setting [32] is 7.01%; the viability, T/C under setting [33] is 6.98%; the viability, T/C under setting [34] was 4.89%; the viability, T/C under setting [35] is 4.18%; the viability, T/C under setting [36] was 5.05%. The viability, T/C is 10.3% under setting [37]; 3.73% under setting [38]; 1.83% under setting [39]; 4.43% under setting [40]; 2.4% under setting [41]; 2.72% under setting [42].
For `C#Cc1c(F)ccc2cc(O)cc(-c3ncc4c(N5CC6CCC(C5)N6)nc(OCC56CCCN5CC(F)C6)nc4c3F)c12` (stereo unspecified), the viability, T/C (compound 0.0316 µM) was 102% and 110% and 104%; the viability, T/C (compound 0.1 µM) is 121% and 94.4% and 94.7%; the viability, T/C (compound 0.316 µM) was 106% and 97.1% and 94.4%; the viability, T/C (compound 1 µM) was 117% and 102% and 95.2%; the viability, T/C (compound 3.16 µM) was 124% and 92.5% and 79.8%; the viability, T/C (compound 10 µM) was 87.1% and 32.5% and 43.6%. Moreover, for the setting “curve of compound”, the IC50 is > 10000 nM and 7160 nM and 8220 nM.

The viability, T/C is the ratio of treated to control. As a reminder, the IC50 is the concentration at which inhibition is half-maximal.
